Test results from a melting point compilation (Tetko et al.; mined from patent text by program, amines drawn as free bases though some values may be those of a salt).

Question: With `Cc1cc(N)nc(CCc2nc3cc(-c4cccc(O)c4)cnc3[nH]2)c1` as the compound, how does the melting point read?
Answer: Its melting point is 162 °C.

Question: For `Nc1ncc(Sc2cccnc2)s1`, which melting point is on record?
Answer: Its melting point is 140 to 142 °C.

Question: With `COc1ccc(-n2c(=O)cc(C(F)(F)F)n(C)c2=O)c2c1C(=O)C(C)(C)O2` as the compound, how does the melting point read?
Answer: Its melting point is 222 to 224 °C.

Question: With `O=C(Nc1ccc(Cl)c(C(F)(F)F)c1)N1NC(c2ccccc2)C(c2ccccc2)C1=O` (stereo unspecified) as the compound, how does the melting point read?
Answer: The melting point was 72 to 74 °C.

Question: Which melting point does the source give for `CC(C)CCCC(C)C1CCC2C3CC=C4CC(OCC(=O)O)CCC4(C)C3CCC12C` (stereo unspecified) here?
Answer: The melting point was 160 °C.

Question: Which melting point does the source give for `CC(=O)NS(=O)(=O)c1ccc(-n2cc(C)cc2-c2ccc(C)c(C)c2)cc1` here?
Answer: Its melting point is 192 to 193 °C.

Question: For `CCNc1c(SC(F)(F)F)c(C)nn1-c1c(Cl)cc(C(F)(F)F)cc1Cl`, which melting point is on record?
Answer: The melting point was 53 to 54 °C.

Question: For `CCOC(=O)c1cc(Cl)n2nc(-c3ccccc3)cc2n1`, which melting point is on record?
Answer: Its melting point is 135 to 137 °C.

Question: Which melting point does the source give for `O=C(O)C(Cc1ccc(OCCN2c3ccccc3Oc3ccccc32)cc1)Oc1ccccc1` (stereo unspecified) here?
Answer: Its melting point is 119 to 120 °C.

Question: For `CCCCCc1cc2c(nc(O)n2Cc2cccnc2)c(N)n1`, which melting point is on record?
Answer: Its melting point is 243 to 245 °C.

Question: Which melting point does the source give for `O=C(O)c1ccc(CSc2nnc(S)s2)cc1` here?
Answer: Its melting point is 230 to 232 °C.

Question: Which melting point does the source give for `CCC1(CO)Cc2cc(OCC(=O)O)c(Cl)c(Cl)c2C1=O` (stereo unspecified) here?
Answer: The melting point was 155 to 157 °C.

Question: Which melting point does the source give for `CCCCS(=O)(=O)c1ccc(C(=O)Nc2ccc3cc(CN4CCCC4)cnc3c2C)cc1` here?
Answer: Its melting point is 210 °C.

Question: For `CC(=O)N1CCc2cc(Br)cc(C#N)c21`, which melting point is on record?
Answer: The melting point was 170 to 175 °C.

Question: For `CSCCC(C)NC(=O)c1c(I)cccc1C(=O)O` (stereo unspecified), which melting point is on record?
Answer: The melting point was 148 to 150 °C.

Question: Which melting point does the source give for `C#CC[C@H](c1nc2cc(Cl)ccc2c(=O)n1Nc1ccccc1)N(CCCN)C(=O)c1cc(F)c(F)c(F)c1F` here?
Answer: The melting point was 155 to 158 °C.

Question: With `C=CCn1c(NC)nn(C(=O)Nc2ccccc2)c1=S` as the compound, how does the melting point read?
Answer: The melting point was 132 to 133 °C.

Question: For `O=[N+]([O-])c1cc(OCC2CCCSC2)c(Cl)cc1F` (stereo unspecified), which melting point is on record?
Answer: Its melting point is 100 to 103 °C.

Question: Which melting point does the source give for `CC(C)(C)c1ccc(Sc2ccc([N+](=O)[O-])cc2)cc1` here?
Answer: Its melting point is 65 to 66 °C.

Question: With `O=C(CCl)Oc1ccc(OC(=O)CCl)cc1` as the compound, how does the melting point read?
Answer: Its melting point is 127 to 128 °C.

Question: For `Cc1cc2c(c3ccc(=O)[nH]c13)OC(CNC(=O)C(C)(C)NC(=O)OCc1ccccc1)C2` (stereo unspecified), which melting point is on record?
Answer: Its melting point is 220 to 222 °C.

Question: For `CCCn1c(=S)[nH]c2ccc(I)cc2c1=O`, which melting point is on record?
Answer: Its melting point is over 200 °C.

Question: With `CC1(C)OC(=S)Nc2ccc(-c3sccc3C#N)cc21` as the compound, how does the melting point read?
Answer: Its melting point is 194 to 195 °C.

Question: With `O=C(O)CCC(CSc1nc2ccccc2s1)C(=O)O` (stereo unspecified) as the compound, how does the melting point read?
Answer: The melting point was 152 to 154 °C.

Question: Which melting point does the source give for `c1ccc(CN2CCC(NC3CCOCC3)CC2)cc1` here?
Answer: The melting point was 60 °C.

Question: Which melting point does the source give for `CSc1cc(C)nc(SC)c1NC(=O)CCCCCSc1nc2ncccc2o1` here?
Answer: Its melting point is 132 to 133 °C.

Question: With `CCCCCCc1cc2c(s1)-n1c(C)nnc1CN=C2c1ccc(C)c(C)c1` as the compound, how does the melting point read?
Answer: Its melting point is 98 to 100 °C.

Question: Which melting point does the source give for `CC(O)c1cc(Cl)cc(Cl)c1O` (stereo unspecified) here?
Answer: Its melting point is 70 °C.

Question: Which melting point does the source give for `CCC(CC)c1ccc(Cl)c2nc3n(c12)CCCCN3c1ccc(SC)cc1C` here?
Answer: The melting point was 113 to 115 °C.

Question: With `COc1ccc(C(=O)Nc2cc(NC(=O)c3ccc(N(C)CCCN(C)C)cc3)ccc2C)cc1OC` as the compound, how does the melting point read?
Answer: The melting point was 164 to 165 °C.

Question: For `O=C1N(Cc2noc(C(F)(F)F)n2)c2ccccc2C12COc1cc3c(cc12)OCO3` (stereo unspecified), which melting point is on record?
Answer: The melting point was 139 to 140 °C.

Question: For `Cc1nc2ncnn2c(Cl)c1C1CCCC1`, which melting point is on record?
Answer: The melting point was 87 °C.

Question: Which melting point does the source give for `CCOC(=O)COc1c(-c2ccccc2)cc(O)cc1-c1ccccc1` here?
Answer: Its melting point is 91 to 93 °C.

Question: With `O=C(Nc1c[nH]nc1C(=O)NC1CCCCC1)c1ccccn1` as the compound, how does the melting point read?
Answer: Its melting point is 262 to 263 °C.

Question: Which melting point does the source give for `CCCCN(C)C(=NC#N)NCc1cccnc1` here?
Answer: Its melting point is 65 to 69 °C.

Question: For `CC(C)(C)[C@H](N)C(N)=O`, which melting point is on record?
Answer: Its melting point is 104 to 105 °C.

Question: Which melting point does the source give for `COC(=O)C(C(C)C)S(=O)(=O)N(C(C)=O)c1nc(OC)cc(OC)n1` (stereo unspecified) here?
Answer: Its melting point is 100 to 102 °C.

Question: For `Cc1noc(NS(=O)(=O)c2ccccc2-c2ccccc2)c1Cl`, which melting point is on record?
Answer: Its melting point is 132 to 134 °C.

Question: With `N#Cc1ccc(CNC(=O)c2cccc(C#CCn3ccnn3)c2)cc1` as the compound, how does the melting point read?
Answer: Its melting point is 145 to 147 °C.

Question: For `COc1cc2c(NC3CCCC3)c(C#N)cnc2cc1F`, which melting point is on record?
Answer: Its melting point is 162 to 164 °C.

Question: Which melting point does the source give for `CC=C1CCC2C3CCC4CC(O)C(OCC)CC4(C)C3C(N(C)C)CC12C` (stereo unspecified) here?
Answer: Its melting point is 63 to 78 °C.

Question: For `COc1cccc(Cc2ccc(-c3c[nH]nc3N)cc2)c1`, which melting point is on record?
Answer: Its melting point is 118 to 120 °C.

Question: For `CC(C)C(O)(Cn1cncn1)c1ccc(Oc2ccc(Cl)cc2)cc1C(F)(F)F` (stereo unspecified), which melting point is on record?
Answer: The melting point was 114 °C.

Question: With `CCN(CC)S(=O)(=O)c1cc(C(=O)CCl)ccc1Cl` as the compound, how does the melting point read?
Answer: The melting point was 63 to 65 °C.

Question: Which melting point does the source give for `CCOC(=O)c1cc(-c2ccccc2)n(-c2ccc(S(N)(=O)=O)cc2)n1` here?
Answer: Its melting point is 192 to 195 °C.

Question: For `COc1c(Cl)ccc(-c2nc(C(=O)OCc3ccc(Cl)cc3)c(Cl)c(N)c2F)c1F`, which melting point is on record?
Answer: The melting point was 143 °C.

Question: For `CC(=O)NCCNc1ccc(NCCNC(C)=O)c2c1C(=O)c1c(O)ccc(O)c1C2=O`, which melting point is on record?
Answer: Its melting point is 273 to 274 °C.

Question: Which melting point does the source give for `O=C(Nc1nonc1-c1ccc(Cl)cc1)NC1CCCCC1` here?
Answer: The melting point was 216 °C.

Question: For `CC1=Cc2cc(-c3nnnn3C)ccc2OC1(C)C`, which melting point is on record?
Answer: Its melting point is 127 to 130 °C.

Question: With `Cc1oncc1C(=O)c1ccc(S(C)=O)c(Cl)c1Cl` (stereo unspecified) as the compound, how does the melting point read?
Answer: The melting point was 125 to 126 °C.

Question: With `O=C1C(CCO)Oc2ccccc2N1Cc1ccccc1` (stereo unspecified) as the compound, how does the melting point read?
Answer: Its melting point is 83 to 85.5 °C.
